Experiments:
[1] = tested on: beta TC6 cells; test: Cell viability assay (CellTiter-Glo / automated cell number) in beta TC6; assay type: cell-based; details: Mus musculus, read-out: Inhibition of cell viability IC50
Text: (§1) Luminescent cell viability assay. For the detection of cell viability, the CellTiter-Glo® Luminescent Cell Viability Assay was used. This test is based on a luciferase reaction to measure the amount of ATP in cells. This correlates directly with the number of cells and their viability because cells lose the ability to synthesize ATP directly after e.g. loss of membrane integrity or a cytotoxic event. The protocol was adapted to 24 well plates and to the different culture conditions resulting in a standardized protocol which is described below. Cell lysis, inhibition of endogenous ATPases and detection of ATP was performed by adding the CellTiter-Glo® Reagent to the culture wells. Per well, 100 μl reagent were mixed with the same volume of proper Medium. Lysing of the cells took place by 10 min incubation at RT and moderate shaking. Three times 50 μl cell lysate was transferred into a white 96 well plate to eliminate stray light, and the bioluminescence was measured.
(§2) In a 96 well dish 10000 cells per well (100 μl) were seed and treated for 72 h. At the end of the treatment, cells were fixed with 4% paraformaldehyde in PBS for 15 minutes, permeabilized with 0.1% triton-X 100 in PBS for 15 minutes and stained with Hoechst 33342 (20 μg/ml in PBS; dilute from 20 mg/ml stock) directly to cells in 100 μl medium in PBS for 30 minutes at 37° C. Stained cells were imaged with a Cellomics ArrayScan VT I automated microscope. Images were analyzed with vHCS Scan Target Activation software v5.1.2 to identify apoptotic cells. Six fields per well of a 96 well plate we re-imaged at 10× magnification. First, cells were identified by their nuclei staining in channel 1 of Cellomics and their amount. Staining intensity was plotted and compared between NT controls and compound treated cells. Finally, data was obtained using vHCS View software v 5.1.2 and the numbers of cells present in the 96 well were identified as “Valid Object Count” whereas the percentage of infection was determined as “% selected”. IC50 values have been calculated accordingly.

[2] = tested on: HepG2 cells; test: Cell viability assay (CellTiter-Glo / automated cell number) in HepG2; assay type: cell-based; details: Homo sapiens, read-out: Inhibition of cell viability IC50
Text: as §1, §2

[3] = tested on: 3T3-L1 cells; test: Cell viability assay (CellTiter-Glo / automated cell number) in 3T3-L1; assay type: cell-based; details: Mus musculus, read-out: Inhibition of cell viability IC50
Text: as §1, §2

[4] = target: T1, full length GRK5 (Homo sapiens, UniProt P34947); test: GRK5 kinase activity assay, ADP Glo Kinase Assay technology (Promega); assay type: biochemical; details: group II; ADP Glo Kinase Assay (Table 9-B)
T1 construct: 6/2 fold concentrated full length GRK5 (Millipore, #14-714) in reaction buffer; purchased Millipore 14-714
T1 sequence (P34947 whole entry): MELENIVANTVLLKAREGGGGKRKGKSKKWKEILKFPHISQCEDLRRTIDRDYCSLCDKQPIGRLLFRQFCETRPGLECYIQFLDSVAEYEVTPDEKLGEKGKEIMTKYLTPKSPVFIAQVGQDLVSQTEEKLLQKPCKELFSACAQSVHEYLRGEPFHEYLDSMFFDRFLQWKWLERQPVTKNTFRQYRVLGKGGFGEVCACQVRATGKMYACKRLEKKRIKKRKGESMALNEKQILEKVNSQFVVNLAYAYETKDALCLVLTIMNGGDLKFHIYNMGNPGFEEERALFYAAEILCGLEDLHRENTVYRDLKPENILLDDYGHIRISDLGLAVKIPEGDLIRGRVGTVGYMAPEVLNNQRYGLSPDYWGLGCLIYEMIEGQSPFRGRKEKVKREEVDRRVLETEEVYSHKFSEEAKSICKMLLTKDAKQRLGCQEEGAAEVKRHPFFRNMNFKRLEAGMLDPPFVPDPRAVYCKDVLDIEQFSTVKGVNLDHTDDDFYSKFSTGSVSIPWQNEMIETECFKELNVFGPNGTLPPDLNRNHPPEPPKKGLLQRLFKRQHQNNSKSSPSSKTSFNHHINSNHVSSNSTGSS
Protocol: The maximal compound assay concentration was set to 100 μM, representing the compound assay concentration used in the primary screen.
Increasing concentrations of GRK5 are incubated together with 100 μM ATP in the absence and presence of 10 μM casein in a reaction buffer. Within this incubation non-phosphorylated casein is converted into phosphorylated casein and ATP is converted into ADP. Thereafter nonconverted ATP is digested into AMP by addition of the ADP-Glo™ Reagent. Subsequently the ADP that is produced by GRK5 activity is phosphorylated back to ATP by addition of Promega Kinase Detection Reagent. These ATP levels serve as measure for the GRK5 activity and are quantified by a luciferase/luciferin reaction.
For GRK5 kinase activity assay, the following protocol was used:
The reaction buffer used was composed of: 20 mM MES pH 6.0, 1 mM DTT, 10 mM MgCl2, 0.01% Tween20 and the reaction volume was 6 μL.
Firstly 4 μL 6/4 fold concentrated substrate and 6/4 fold concentrated ATP in 1 fold concentrated reaction buffer are added to each well of the assay plate. Subsequently 67 nL […] concentrated test compound in 100% DMSO are added to each well except to C− and C+ wells using pin tool. Then 67 nL 100% DMSO are pipetted to C− (no kinase, no compound) and C+ (no compound) wells using pin-tool and 2 μL reaction buffer are added to C− wells. […] After incubation for 120 min. at room temperature 6 μL ADP-Glo™ Reagent (ADP Glo™ Kinase Assay Kit: Promega, V9101) are added to each well to stop the kinase reaction and deplete the unconsumed ATP. After a second incubation for 40 min. at room temperature 12 μL of Kinase Detection Reagent are added to convert ADP to ATP and start luciferase/luciferin reaction for detection of ATP. […] Finally, after incubation for 40 min at room temperature the luminescence intensity was measured.
The activity of the compounds was classified according to IC50 for binding sites of Grk5 into the following ranges:
8800 Customer compounds were screened for their ability to inhibit the enzymatic activity of GRK5. Screening was performed using the ADP Glo™ Kinase Assay technology (Promega). The small molecular weight compounds were delivered at 10 mM stock concentration and were tested at a final assay concentration of 100 μM.
IC50 values were determined in triplicates at 12 concentrations with a dilution factor of three. Triplicates were measured on three different assay plates. The maximal compound assay concentration was set to 100 μM representing the compound assay concentration used in the primary screen. A larger maximal compound assay concentration could not be achieved since the maximal compound concentration on the compound plates was 10 mM (>1% DMSO concentration in the assay).

[5] = tested on: C2C12 cells; test: Cell viability assay (CellTiter-Glo / automated cell number) in C2C12; assay type: cell-based; details: Mus musculus, read-out: Inhibition of cell viability IC50
Text: as §1, §2

[6] = tested on: beta-TC6 insulinoma cells; test: Insulin release by beta-TC6 cells, rat/mouse insulin ELISA, high glucose; assay type: cell-based; details: for activation at 5 µM: Mus musculus, group II, 2 h, high glucose (4.5 g/L), % increase in regard to DMSO control (set at 0%); for activation at 5 µM / Insulin release by beta-TC6 cells compared with positive control Sunitinib: 5 μM; for Insulin release by beta-TC6 cells compared with positive control Sunitinib: high glucose
Protocol: (§3) Release of insulin was detected using a rat/mouse insulin ELISA.
After incubation, the supernatant of the beta-TC6 insulinoma cells was diluted 1:20. The insulin release was measured with rat/mouse insulin ELISA (Merck Millipore Darmstadt, Cat. # EZRMI-13K) by following the manufacture protocol. The enzyme activity of the horseradish peroxidase of the immobilized biotinylated antibodies was monitored spectrophotometrically by the increased absorbency at 490 nm, and corrected by the absorbency at 610 nm.
as §3
The effect on the insulin release of each kinase depletion was monitored by using a rat/mouse insulin ELISA.
For the validation of the negative modulating kinases SCYL1, GRK5, and ADCK1, the target genes were depleted using four different siRNA-sequences each (FIG. 2A-D). The gene-depletion was measured via mRNA-levels after 72 hours while the insulin release was measured using a rat/mouse insulin ELISA after two hours incubation.

| SMILES | IC50 [1] | IC50 [2] | IC50 [3] | IC50 [4] | IC50 [5] | activation at 5 µM ([6]; Beta-TC6, 2 h) | activation at 5 µM ([6]; Beta-TC6) | Increase in insulin release ([6]; positive control of the siRNA validation, Sunitinib 5 μM, beta-TC6) | Insulin release by beta-TC6 cells compared with positive control Sunitinib [6] |
| --- | --- | --- | --- | --- | --- | --- | --- | --- | --- |
| CCC(NC(=O)c1ccc2c(c1)/C(=C/c1[nH]c(C)c(C(=O)NCCN3CCCC3)c1C)C(=O)N2)c1ccc(F)c(F)c1 (centres unmarked) [II.10, (3Z)-N-[1-(3,4-difluorophenyl)propyl]-3-({3,5-dimethyl-4-[(2-pyrrolidin-1-ylethyl)carbamoyl]-1H-pyrrol-2-yl}methylene)-2-oxoindoline-5-carboxamide] | 670 nM | 630 nM | > 10000 nM | 100 to 1000 nM | 3230 nM | 164% |  |  |  |
| CC[C@@H](NC(=O)c1ccc2c(c1)/C(=C/Nc1ccc(CN3CCCCC3)cc1)C(=O)N2)c1ccccc1 [II.69, (3Z)-2-oxo-N-[(1R)-1-phenylpropyl]-3-({[4-(piperidin-1-ylmethyl)phenyl]amino}methylene)-indoline-5-carboxamide] | > 10000 nM | 4510 nM | > 10000 nM | < 100 nM | 5630 nM |  |  |  |  |
| C[C@@H](NC(=O)c1ccc2c(c1)/C(=C/Nc1ccc(CN3CCCCC3)cc1)C(=O)N2)c1ccccc1 [II.78, (3Z)-2-oxo-N-[(1R)-1-phenylethyl]-3-({[4-(piperidin-1-ylmethyl)phenyl]amino}methylene)indoline-5-carboxamide] | > 10000 nM | 5730 nM | > 10000 nM | < 100 nM | > 10000 nM |  |  |  |  |
| COc1cccc([C@@H](C)NC(=O)c2ccc3c(c2)/C(=C/Nc2ccc(CN4CCCCC4)cc2)C(=O)N3)c1 [II.79, (3Z)-N-[(1R)-1-(3-methoxyphenyl)ethyl]-2-oxo-3-({[4-(piperidin-1-ylmethyl)phenyl]amino}methylene)indoline-5-carboxamide] | 2050 nM | 2080 nM | > 10000 nM | < 100 nM | > 10000 nM |  |  |  |  |
| C[C@@H](NC(=O)c1ccc2c(c1)/C(=C/Nc1ccc(CN3CCCCC3)cc1)C(=O)N2)c1cccc(Cl)c1 [II.80, (3Z)-N-[(1R)-1-(3-chlorophenyl)ethyl]-2-oxo-3-({[4-(piperidin-1-ylmethyl)phenyl]amino}methylene)indoline-5-carboxamide] | 470 nM | 3900 nM | > 10000 nM | < 100 nM | > 10000 nM |  |  |  |  |
| CCC(NC(=O)c1ccc2c(c1)/C(=C/c1[nH]c(C)c(CCC(=O)O)c1C)C(=O)N2)c1ccc(Cl)cc1 (centres unmarked) [II.132, (3Z)-3-(5-{5-[1-(4-chloro-phenyl)-propylcarbamoyl]-2-oxo-1,2-dihydro-indol-3-ylidenemethyl}-2,4-dimethyl-1H-pyrrol-3-yl)-propionic acid] |  |  |  | 100 to 1000 nM |  | 117% |  |  |  |
| CCC(NC(=O)c1ccc2c(c1)/C(=C/c1[nH]c(C)c(CCC(=O)O)c1C)C(=O)N2)c1ccc(F)c(F)c1 (centres unmarked) [II.133, (3Z)-3-(5-{5-[1-(3,4-difluoro-phenyl)-propylcarbamoyl]-2-oxo-1,2-dihydro-indol-3-ylidenemethyl}-2,4-dimethyl-1H-pyrrol-3-yl)-propionic acid] |  |  |  | 100 to 1000 nM |  | 131% |  |  |  |
| CCC(NC(=O)c1ccc2c(c1)/C(=C/c1[nH]c(C)c(CCC(=O)NCCN(CC)CC)c1C)C(=O)N2)c1cccc(Cl)c1 (centres unmarked) [II.135, (3Z)-3-{4-[2-(2-diethylamino-ethylcarbamoyl)-ethyl]-3,5-dimethyl-1H-pyrrol-2-ylmethyiene}-2-oxo-2,3-dihydro-1H-indole-5-carboxylic acid [1-(3-chloro-phenyl)-propyl]-amide] | 1550 nM | 1850 nM | 1350 nM | < 100 nM | > 10000 nM |  |  |  |  |
| CCOC(=O)[C@H](C)NC(=O)c1c(C)[nH]c(/C=C2\C(=O)Nc3ccc(C(=O)O)cc32)c1C [II.136] | > 10000 nM | > 10000 nM | 2690 nM | 100 to 1000 nM | > 10000 nM |  |  |  |  |
| Cc1[nH]c(/C=C2\C(=O)Nc3ccc(C(=O)O)cc32)c(C)c1C(=O)O [II.139, (3Z)-3-(4-carboxy-3,5-dimethyl-1H-pyrrol-2-ylmethylene)-2-oxo-2,3-dihydro-1H-indole-5-carboxylic acid] | > 10000 nM | > 10000 nM | 1340 nM | 1000 to 2000 nM | > 10000 nM |  |  |  |  |
| COC(=O)[C@@H](Cc1ccccc1)NC(=O)c1c(C)[nH]c(/C=C2\C(=O)Nc3ccc(C(=O)O)cc32)c1C [II.140, (3Z)-3-[4-((1R)-1-methoxycarbonyl-2-phenyl-ethylcarbamoyl)-3,5-dimethyl-1H-pyrrol-2-ylmethylene]-2-oxo-2,3-dihydro-1H-indole-5-carboxylic acid] | > 10000 nM | > 10000 nM | 4000 nM | 1000 to 2000 nM | > 10000 nM |  |  |  |  |
| COC(=O)[C@H](COC(C)(C)C)NC(=O)c1c(C)[nH]c(/C=C2\C(=O)Nc3ccc(C(=O)O)cc32)c1C [II.141, (3Z)-3-[4-(2-tert-butoxy-(1S)-1-methoxycarbonyl-ethylcarbamoyl)-3,5-dimethyl-1H-pyrrol-2-ylmethylene]-2-oxo-2,3-dihydro-1H-indole-5-carboxylic acid] | > 10000 nM | > 10000 nM | 3410 nM | 2000 to 10000 nM | > 10000 nM |  |  |  |  |
| CCN(CC)CCNC(=O)c1c(C)[nH]c(/C=C2\C(=O)Nc3ccc(F)cc32)c1C [Sunitinib, reference compound] |  |  |  |  |  |  | 80% | 76.52±13% |  |
| NC(=O)c1ccc(Nc2cc3[nH]c(-c4cccc(F)c4)cc3cn2)cc1 [compound 6, 4-[[2-(3-fluorophenyl)-1H-pyrrolo[3,2-c]pyridin-6-yl]amino]benzamide] |  |  |  |  |  |  |  |  | level similar to Sunitinib |
| Cn1c(-c2cccnc2)cc2c(Nc3cccc(C(F)(F)F)c3)nccc21 [compound 243, 1-methyl-2-(3-pyridyl)-N-[3-(trifluoromethyl)phenyl]pyrrolo[3,2-c]pyridin-4-amine] |  |  |  |  |  |  |  |  | better effect on the insulin release by beta-TC6 cells than the positive control Sunitinib |
